One data set concerns E. coli ATCC 25922. Description: MIC by broth microdilution, E. coli reference strain. The following applies: Table 4. The data set is classed as cell-based, Escherichia coli. As to the method:
(§1) Determination of MIC. MICs were determined in MHB by the broth microdilution methodology, according to CLSI procedure (formerly NCCLS, Ref. 11) by using final bacterial inocula of 1-5×10^5 CFU/mL. Assays were performed in sterile 96-well microtiter plates with round bottom wells (Corning Costar). Plates were incubated at 37° C. and read after 20-24 h. MIC was defined as the lowest drug concentration causing complete suppression of visible bacterial growth. All compounds were dissolved in (5% v/v DMSO).
All natural aminoacids have been divided into three groups based on their chemical-physical properties. A total amount of 27 minilibraries, each one containing six peptide in equimolar amounts, were obtained and assayed against E. coli ATCC 25922 as reference strain. MIC (Minimum Inhibitory Concentration) is defined as the lowest concentration inhibiting 100% of visible growth.
(Broth dilution looks for growth in wells or tubes with falling amounts of substance.)

Data set [1] deals with Pseudomonas aeruginosa ATCC 27853. The experiment in a line: MIC by broth microdilution, P. aeruginosa reference strain. The data set is classed as cell-based. The settings on record: Table 4. As to the method:
as §1
These peptides were synthesized individually, in order to assay the activity of each sequence.

A further data set has as its system Acinetobacter baumannii. The data set is classed as cell-based. As to the method:
as §1
(§2) These compounds were tested against a large panel of Gram-negative clinical isolates and the relative MIC values were reported in Table 5 (parts 1-3)

The test system of another data set is Acinetobacter iwoffi. The data set is classed as cell-based. On the procedure: as §1, §2
For a further data set, the system named is Enterobacter cloacae. The data set is classed as cell-based. As to the method:
as §1, §2

The test system of a further data set is Escherichia coli. The class given is cell-based. As to the method:
as §1, §2

The test system of a further data set is Klebsiella oxytoca. The data set is classed as cell-based. On the procedure:
as §1, §2

A further data set concerns Klebsiella pneumoniae. The data set is classed as cell-based. On the procedure:
as §1, §2

The next data set has as its system Proteus mirabilis. The data set is classed as cell-based. As to the method:
as §1, §2

In another data set the test system is Pseudomonas aeruginosa. The data set is classed as cell-based. As to the method: as §1, §2
For another data set, the system named is Serratia marcescens. The data set is classed as cell-based. As to the method:
as §1, §2

Data set [2] deals with Stenotrophomonas maltophilia. The class given is cell-based. As to the method: as §1, §2
Another data set relates to Shigella. Description: MIC vs clinical isolates, Shigella. The class given is cell-based. The following applies: Shigella strain ND024108. As to the method:
as §1, §2

In a further data set the test system is E. coli EC47. The class given is cell-based, Escherichia coli. As to the method:
Test and reference compounds, ID24 and colistin sodium methanesufonate (CMS) respectively, were dissolved in 0.1 M phosphate-buffered saline pH 6.9, at the required drug concentrations. Solutions were made just before administration, and stored at 4° C. until the end of scheduled treatments, ID24 MIC value on E. coli EC47 strain is 2 ug/mL [MIC was determined by the broth microdilution method in Muller Hinton medium (NCCLS guidelines), using bacterial inoculum of approximately 10^5 CFU/mL].

Data set [3] is described as follows: In vitro cytotoxicity, MTT dye reduction assay, HeLa. The class given is cell-based. The settings on record: human, HeLa cells (human epithelial carcinoma). As to the method:
(§3) HeLa (Human epithelial carcinoma cell line), HepG2 (Human hepatocellular liver carcinoma cell line) and HaCat (human keratinocyte) were grown to confluence and then plated at 20,000, 12,500 and 30,000 cells per well (the optimal cell count for each cell line has been previously determined). After 24 hours, ID24 in DMEM without FBS was added at concentration ranging from 800 and 100 ug/ml. As positive controls 100 uL of cells washed with medium without serum that represent 100% viability and, as negative, 100 uL medium without serum were also added. After 24 hours of incubation at 37° C. in a 5% v/v CO2 atmosphere, 10 ul MTT Reagent [3-(4,5-dimethylthiazol-2-yl)-2,5-diphenyl […] bromide, final concentration 0.5 mg/mL) was added to each well and incubated for 2 to 4 hours. Solubilization of formazan, formed by metabolic reduction of MTT, was obtained using the stop mix solution (10% w/v sodium dodecyl sulphate, 45% v/v dimethyl formamide, adjusted to pH 4.5 with glacial acetic acid). The plates were read in a microplate spectrophotometer. (Biorad, Benchmark plus). Cultures exposed to ID24 or exposed to the medium alone were measured spectrophotometrically at dual wave-length (565-650 nm). The experiment was carried out in three replicates.

Data set [4] in a line: In vitro cytotoxicity, MTT dye reduction assay, HepG2. The data set is classed as cell-based. The settings on record: human, HepG2 cells (human hepatocellular liver carcinoma). As to the method: as §3
(Formazan colour is commonly taken as a measure of viable cells.)

A short description of data set [5]: In vitro cytotoxicity, MTT dye reduction assay, HaCat. The data set is classed as cell-based. The following applies: human, HaCat cells (human keratinocytes). On the procedure:
as §3

For data set [6], the system named is P. aeruginosa ATCC 27853 24-hours biofilm. The data set is classed as cell-based, Pseudomonas aeruginosa. The settings on record: ATCC 27853, 4 h. As to the method:
An exponential phase inoculum of Pseudomonas aeruginosa ATCC 27853 of approximately 1×10^7 CFU/mL was poured into a reagent reservoir of Innovotech plates for MBEC™ High-throughput assay (Innovotech Inc., Edmonton, Canada). 22 mL of inoculum were added to the trough and the peg lid was placed onto. The device was placed on the shaking incubator at 80 rpm in a humidified box at 37° C.
After 24 hours of incubation, the pegs were rinsed into a plate containing 200 uL of physiological solution to remove loosely adherent planktonic cells from the biofilm and then were put in a microplate containing 200 uL of different antibiotic solutions serially diluted in TSB.
Following 4 hours of contact and incubation at 37° C. on the shaking incubator, the peg lid was removed from the trough and submersed in a rinse plate for 2 minutes.
Then a new microtitre with saline solution containing the sample pegs was put in the tray of the ultrasonic cleaner and sonicated for 30 minutes to disrupt biofilm from the surface of the 96 pegs.
Duplicate 0.01 or 0.005 mL aliquots of ten fold serial dilution of each well, were spread on MHA plate and colonies were read for viable cell counting after 24 hours of incubation.

A short description of a further data set: In vivo acute toxicity. Details: species or system CD1 mice. The settings on record: for symptoms and behavioural alterations (Irwin Test): female CD1 mice. On the procedure:
9-10 weeks female CD1 mice (Charles River Lab. Italia s.r.l. Via Indipendenza, 11-23885 Calco (LC), Italy), weighing on average 28.23 g on the day of experiment were used. Mice were housed for 3 days in a temperature and humidity controlled room before starting experiment, and were fed with standard laboratory chow and water ad libitum.
ID24 was dissolved and sonicated in 0.9% w/v NaCl sterile solution (Sigma-Aldrich) for human administration at the dose concentrations 20 and 40 mg/kg. Compound preparation was conducted just before administration.
Two doses of ID24 were administered with a single intraperitoneal injection to mice: 20 mg/kg and 40 mg/kg. Five animals were treated with each dose of antibiotic. Adverse symptoms were monitored daily for 7 days after injection.
Survivals and clinical/behavioural signs were recorded daily for 14 days.
Main behavioural parameters and clinical signs provided by Irwin Test (Ref. 13).

A further data set deals with fresh human erythrocytes. The data set is classed as cell-based. As to the method: The haemolysis assay was adapted from the method of Shin et al. (Ref. 12). Fresh human erythrocytes were used to test the haemolytic activities of the peptides. Whole blood was collected in a sterile tube with a 4% w/v sodium citrate solution (in a 1:10 ratio sodium citrate:whole blood), put in ice and centrifuged at 1000 g for 5 minutes at 4° C.
The supernatant, including the leucocytes above the erythrocyte pellet, was removed carefully and discarded. Intact erytrocytes were washed three times with 2 volumes (1 mL) of prechilled pyrogen-free saline (PBS 1×). Erythrocyte suspensions were adjusted to 0.8% (8 ul in 1 mL or 160 uL in 20 mL) of PBS 1×. […]
Subsequently, intact erythrocyte were pelletted by centrifugation at 1000 g for 5 minutes at 4° C. One hundred microliters of supernatant from each well was transferred accordingly to a new 96-well microtiter plate, and the amount of haemoglobin released into the supernatant was determined by reading the absorbance at 414 nm against a reference wavelength of 490 nm. […]
The haemolysis was determined by two different assays as described in Example VIII. In Tables 7-9 all haemolysis percentage values, determined by UV-VIS spectrophotometry, are reported. […]

The mark [7] stands for this setting: IP administration, up to the highest dose of 40 mg/kg.

Converted amounts (≈) assume the structure as drawn. Positions of bridges follow the written chain, without caps; N, C: chain ends. Non-standard residues stand in square brackets, D forms with d. Residues, ends and D or L forms follow the SMILES beside them. Chains are numbered I, II in the order given. Aoc = NCCCCCCCC(=O)O

The term MIC denotes the least concentration at which growth counts as inhibited. A high value points to a need for much substance. Usually CC50 stands for the concentration at which the toxic effect on the cells reaches its halfway point. Take `CC[C@H](C)[C@H](NC(=O)[C@H](CCCCN)NC(=O)[C@H](CCCCN)NC(=O)[C@@H](N)Cc1c[nH]c2ccccc12)C(=O)N[C@@H](CCCNC(=N)N)C(=O)N[C@H](C(=O)N[C@@H](CCCNC(=N)N)C(=O)N[C@@H](CC(C)C)C(=O)N[C@@H](CO)C(=O)N[C@@H](C)C(=O)NCCCC[C@H](NC(=O)[C@H](C)NC(=O)[C@H](CO)NC(=O)[C@H](CC(C)C)NC(=O)[C@H](CCCNC(=N)N)NC(=O)[C@@H](NC(=O)[C@H](CCCNC(=N)N)NC(=O)[C@@H](NC(=O)[C@H](CCCCN)NC(=O)[C@H](CCCCN)NC(=O)[C@@H](N)Cc1c[nH]c2ccccc12)[C@@H](C)CC)C(C)C)C(=O)NCCCCCCCC(N)=O)C(C)C` [ID24, (H-W-KKIRVRLSA)2-Lys-8-Aoa-NH2] (I: H-WKKIRVRLSAK[Aoc]-NH2 / II: H-WKKIRVRLSA; amide I:11-II:C): the “MIC (ug/mL) E. coli” value against E. coli ATCC 25922 was 4 µg/mL (≈ 1.45 µM). In addition, the “MIC (ug/mL) P. aeruginosa” value in [1] is 32 µg/mL (≈ 11.6 µM). For the same compound, the “MIC Range” value against Acinetobacter baumannii is 8 to 16 µg/mL; with Enterobacter cloacae, 4 to 16 µg/mL; against Escherichia coli, 4 to 32 µg/mL; in the data set with Klebsiella oxytoca it was 16 to 32 µg/mL; against Klebsiella pneumoniae, 4 to 16 µg/mL; in the data set with Proteus mirabilis, over 128 µg/mL. Moreover, the figures for the “MIC Range” value (against Pseudomonas aeruginosa; in [2]) were 8 to 16 µg/mL and 8 to 32 µg/mL, respectively. Also, the MIC was 32 µg/mL (≈ 11.6 µM) in the data set on Acinetobacter iwoffi, over 128 µg/mL against Proteus mirabilis, over 128 µg/mL against Serratia marcescens and 4 µg/mL (≈ 1.45 µM) against Shigella. Further, the “MIC value on E. coli EC47 strain” value in the data set with E. coli EC47 is 2 µg/mL (≈ 0.724 µM). For the same compound, the CC50 at 24 h was determined as 156 nM in data set [3]; 430 µg/mL in data set [3] (HeLa, 24 hours incubation, MTT, read-out: CC50 ID24); 78 nM in data set [4]; 215 µg/mL in data set [4] (HepG2, 24 hours incubation, MTT, read-out: CC50 ID24); 160 nM in [5]; 442 µg/mL in [5] (HaCat, 24 hours incubation, MTT, read-out: CC50 ID24). Also, in [6], the “percentage of inhibition of bacteria biofilm” value is listed as 88.7-99.9%. Also, the “symptoms and behavioural alterations (Irwin Test)” value in the data set “In vivo acute toxicity” (20 mg/kg single intraperitoneal injection) and in the data set “In vivo acute toxicity” (40 mg/kg single intraperitoneal injection) was “no behavioural alterations” throughout. The adverse symptoms entry in “In vivo acute toxicity” (setting [7]) is reported as “No adverse symptoms”. For the same compound, in the data set “In vivo acute toxicity” (setting [7]), the deaths result is reported as “no deaths”.

Consider Triton X 100, for which the “Haemolysis, %” value in the data set on fresh human erythrocytes worked out at 100.0%.

The record behind these values is patent US8785399B2, “Antibacterial peptides” (Spiderbiotech S.R.A., priority 2008, dated 2014).
